Among the data in PubChem BioAssay (NCI) are TGI and GI50 values, retold here.

Common to all, as to experiment: inhibition of tumour cell growth, NCI panel, 48 h
The test system of test [1] is ACHN renal.
For test [2], the system named is HS 578T breast.
The subject of test [3] is M14 melanoma.
The test system of test [4] is MOLT-4 leukemia.
The subject of test [5] is NCI-H460 lung.
The test system of test [6] is SK-MEL-5 melanoma.
Test [7] concerns SN12C renal.
Test [8] has as its system SNB-19 CNS.
Test [9] concerns U251 CNS.
Test [10] concerns UACC-257 melanoma.

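Exposure lasted 48 hours, with cells grown in 96-well plates and compounds tested at five concentrations. At the GI50, growth is halved. TGI marks complete inhibition of growth.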 Where a SMILES comes first, the peptide text is derived from it. [ ]: non-standard residue; d: D form. NMeY = CN[C@@H](Cc1ccc(O)cc1)C(=O)O; dNMeF = CN[C@H](Cc1ccccc1)C(=O)O; Sar = CNCC(=O)O

In the case of `S=C=NCc1ccccc1`, the TGI came to 12.7 µM in [1]; 53.6 µM in test [2]; 5.81 µM in [3]; 4.37 µM in test [4]; 24.5 µM in [5]; 7.76 µM in test [6]. Moreover, the TGI in test [7] is greater than 36.8 µM; in test [8], 13.1 µM; in [9] it was 12.2 µM; in test [10], 15.2 µM.

Consider `Nc1c(C(=O)c2cccc(C#CCN3CCOCC3)c2)cnn1-c1ccc(F)cc1`, for which the GI50 in test [1] was greater than 25 µM; in [2] it was greater than 25 µM; in test [3] it was greater than 25 µM; in test [4], greater than 25 µM; in [5] it was greater than 16.5 µM; in test [6], 8.88 µM. The GI50 is greater than 25 µM in test [7], greater than 25 µM in test [8], greater than 21 µM in test [9] and greater than 18.6 µM in test [10]. Besides, the TGI in test [1], in [2], in test [3], in test [4], in test [5] and in test [6] was greater than 25 µM in each case. Besides, the TGI in [7], in test [8], in test [9] and in test [10] was greater than 25 µM in each case.

For the compound `C[C@H]1[C@H](C)CC[C@]2(C(=O)O)CC[C@]3(C)C(=CC[C@@H]4[C@@]5(C)CC[C@H](OC(=O)/C=C/c6ccc(O)cc6)C(C)(C)[C@@H]5CC[C@]43C)[C@H]12`, the GI50 is 5.05 µM in test [1]; 2.81 µM in test [2]; 4.13 µM in [3]; 4.42 µM in test [4]; 7.08 µM in [5]; 4.91 µM in [6]. In addition, the GI50 is 2.15 µM in [7], 2.44 µM in test [8], 6.54 µM in test [9] and 12.1 µM in test [10]. For the same compound, the TGI in test [1] is 9.12 µM; in [2], 8.8 µM; in test [3], 12.5 µM; in [4], 49.7 µM; in test [5] it was greater than 65.9 µM; in test [6], 14.9 µM. Further, the TGI in test [7] stood at 5.65 µM; in [8], 22.9 µM; in test [9] it was 17.2 µM; in test [10], 51.5 µM.

For the compound `COc1ccc2[nH]c(=O)c(/C=C/C(=O)/C=C/c3ccc(O)c(OC)c3)cc2c1`, the GI50 in [1] was 1.68 µM; in [2], 3.81 µM; in [3], 1.67 µM; in test [4] it was 2.93 µM; in test [5], 2.04 µM; in test [6], 1.77 µM. The GI50 in [7] is 1.89 µM; in test [8], 1.67 µM; in [9] it was 1.17 µM; in [10], 1.58 µM. In addition, the TGI in test [1] was 3.13 µM; in [2] it was greater than 100 µM; in test [3] it was 4.99 µM; in [4], greater than 100 µM; in [5] it was 5 µM; in test [6], 3.27 µM. In addition, the TGI in [7] was determined as 4.49 µM; in test [8], 3.92 µM; in [9] it was 2.68 µM; in test [10], 3.09 µM.

In the case of `O=C(O)c1ccc(NCc2nc3cc4ccccc4cc3[nH]2)cc1`, the TGI is greater than 100 µM in test [1]; greater than 100 µM in test [2]; greater than 100 µM in test [3]; greater than 100 µM in test [4]; greater than 100 µM in test [5]; greater than 72.7 µM in [6]. Moreover, the TGI in [7] is greater than 100 µM; in [8], greater than 100 µM; in [9], greater than 100 µM; in test [10] it was 25.9 µM.

With `CCN(C(=O)CCl)C(C)(C)C(SSSC(c1ccc(Cl)cc1)C(C)(C)N(CC)C(=O)CCl)c1ccc(Cl)cc1` (stereo unspecified), the GI50 in [1] was 4.78 µM; in test [2], 3.36 µM; in test [3] it was 1.91 µM; in [4], 4.46 µM; in test [5] it was 7.34 µM; in test [6] it was 6.92 µM. For the same compound, the GI50 in test [7] is 12.5 µM; in test [8], 13.9 µM; in test [9] it was 4.72 µM; in test [10], 1.82 µM. The TGI was found to be 16.9 µM in [1]; 18.8 µM in test [2]; 3.65 µM in [3]; 13.9 µM in test [4]; 20.9 µM in [5]; 20.2 µM in test [6]. Further, the TGI in test [7] is 26.4 µM; in test [8], 30.3 µM; in [9] it was 17.7 µM; in test [10] it was 3.48 µM.

Turning to `CN(C)CCNC(=O)Cn1ccc(=O)c2ccc([N+](=O)[O-])cc21`, the TGI in test [1], in [2], in [3], in test [4], in [5] and in [6] was greater than 100 µM each time. The TGI in test [7], in test [8], in [9] and in test [10] was greater than 100 µM throughout.

Regarding `COc1ccc(-c2cc(-c3cn[nH]c3-c3ccccn3)ccn2)cc1`, the GI50 in [1], in [2], in [3], in test [4], in test [5] and in test [6] was greater than 25 µM each time. Also, the GI50 in [7], in test [8], in test [9] and in test [10] was greater than 25 µM each time. The TGI in [1], in test [2], in test [3], in test [4], in [5] and in [6] was greater than 25 µM in each case. Further, the TGI in test [7], in test [8], in [9] and in [10] was greater than 25 µM throughout.

Take `Nc1c(C(=O)c2cccc(CCC3(O)CCCC3)c2)cnn1-c1ccc(F)cc1`: the GI50 was greater than 21 µM in test [1]; 12.7 µM in [2]; 14.9 µM in test [3]; 10.2 µM in test [4]; 20.5 µM in [5]; 4.78 µM in test [6]. Also, the GI50 in test [7] is 16.2 µM; in test [8], 15.3 µM; in [9], 14.2 µM; in test [10] it was 10 µM. The TGI is greater than 25 µM in test [1]; greater than 25 µM in test [2]; greater than 25 µM in test [3]; greater than 25 µM in test [4]; greater than 25 µM in test [5]; 13.3 µM in test [6]. Further, the TGI in [7], in test [8], in test [9] and in test [10] was greater than 25 µM throughout.

`C[C@]12CCC3c4ccc(O)cc4CCC3C1Cc1ccc(O)cc12` (stereo partly specified): the GI50 in test [1] is 10.4 µM; in test [2], 5.87 µM; in test [3] it was 3.8 µM; in test [5], 4.88 µM; in test [6] it was 4.85 µM; in test [7] it was 11.8 µM. Besides, the GI50 in [8] is 10.6 µM; in test [9] it was 5.24 µM; in [10] it was 14.4 µM. Further, the TGI in test [1] was 22.3 µM; in test [2], 42.6 µM; in test [3], 13.6 µM; in test [4], 0.478 µM; in [5], 18.2 µM; in test [6], 16.8 µM. In addition, the TGI amounted to 25.8 µM in [7], 22.7 µM in test [8], 17.4 µM in [9] and 28.5 µM in test [10].

Regarding `O=C(NC(=S)NNC(=S)NNc1ccccc1)c1ccccc1`, the GI50 in test [1] was 10.1 µM; in test [2], 1.55 µM; in [3], 7.45 µM; in test [4], 4.81 µM; in test [5] it was 3.72 µM; in test [6], 3.73 µM. For the same compound, the GI50 was 4.87 µM in [7], 13 µM in test [8], 8.36 µM in test [9] and 4.68 µM in [10]. For the same compound, the TGI in [1] was greater than 100 µM; in test [2], greater than 100 µM; in test [3] it was 55.6 µM; in test [4] it was 49.9 µM; in test [5], greater than 100 µM; in test [6], greater than 100 µM. For the same compound, the TGI in test [7], in test [8], in test [9] and in test [10] was greater than 100 µM throughout.

Consider `CO[C@H]1C[C@@H]2CC[C@@H](C)[C@@](O)(O2)C(=O)C(=O)N2CCCC[C@H]2C(=O)O[C@H]([C@H](C)C[C@@H]2CC[C@@H](OP(C)(C)=O)[C@H](OC)C2)CC(=O)[C@H](C)/C=C(\C)[C@@H](O)[C@@H](OC)C(=O)[C@H](C)C[C@H](C)/C=C/C=C/C=C/1C`, for which the GI50 in test [1] is 0.411 µM; in test [3], 11.8 µM; in test [4], 2.96 µM; in test [7], 11 µM; in [8], 7.03 µM; in test [9], 0.0208 µM. Further, the GI50 in test [10] is 3.21 µM. Moreover, the TGI is 21.5 µM in test [1]; 37.1 µM in test [2]; 26 µM in test [3]; 37.1 µM in test [4]; 21.8 µM in test [5]; 18.4 µM in [6]. For the same compound, the TGI is 25.8 µM in test [7], 23.5 µM in [8], 19.2 µM in [9] and 21.8 µM in test [10].

For `Cc1ccc(N=Nc2c(N)nn(-c3ccccc3)c2N)cc1`, the GI50 in test [1] is 11.6 µM; in test [2], 1.94 µM; in [3], 1.04 µM; in test [4], 1.07 µM; in [5], 1.07 µM; in test [6], 1.65 µM. Further, the GI50 in [7] was 7.66 µM; in [8], 6.23 µM; in test [9], 0.762 µM; in [10] it was 42.9 µM. Besides, the TGI in [1] is greater than 100 µM; in test [2], greater than 31.4 µM; in test [3], greater than 100 µM; in [4], greater than 100 µM; in test [5] it was greater than 100 µM; in test [6], greater than 100 µM. For the same compound, the TGI in [7], in test [8], in [9] and in [10] was greater than 100 µM each time.

As to `CC[C@H](C)[C@@H]1NC(=O)[C@H](Cc2ccc(O)cc2)N(C)C(=O)[C@H](Cc2ccccc2)NC(=O)CN(C)C(=O)[C@@H]2CCCN2C(=O)[C@@H](Cc2ccccc2)N(C)C(=O)[C@H](CC(C)C)NC1=O` (cyclo(F[NMeY]IL[dNMeF]P[Sar])), the GI50 was 2.34 µM in test [1]; 0.137 µM in test [2]; 0.371 µM in test [3]; 0.314 µM in test [4]; 0.184 µM in test [5]; 0.485 µM in [6]. Also, the GI50 in test [7] was 0.139 µM; in test [8] it was 0.146 µM; in test [9], 0.146 µM; in test [10], 0.267 µM. For the same compound, the TGI was 11.6 µM in test [1]; 1.25 µM in test [2]; 2.58 µM in test [3]; 10.6 µM in [4]; 1.94 µM in [5]; 1.85 µM in test [6]. The TGI in test [7] was 5.79 µM; in test [8], 6.92 µM; in [9], 7.26 µM; in test [10], 3.05 µM.

Take `O=C1OC(C2=CC(=O)c3ccccc3C2=O)C(Cl)=C1Cl` (stereo unspecified): the TGI in [1] is 33.6 µM; in [2] it was greater than 100 µM; in test [3], greater than 100 µM; in [4], greater than 100 µM; in test [5], greater than 100 µM; in test [6], greater than 100 µM. For the same compound, the TGI in test [7] was 59 µM; in test [8], greater than 100 µM; in [9] it was 86 µM; in test [10] it was greater than 100 µM.

Consider `CCOC(=O)Cn1c(C)c(/C=N/NC(=O)c2cc3c(ccc4ccccc43)o2)c2ccccc21`, for which the GI50 is 0.926 µM in [1]; 0.514 µM in [2]; 0.307 µM in test [3]; 0.96 µM in test [4]; 0.383 µM in test [5]; 0.381 µM in test [6]. Moreover, the GI50 in test [7] is 0.707 µM; in test [8], 0.478 µM; in test [9], 0.426 µM; in test [10], 2.38 µM. In addition, the TGI in test [1] is 3.21 µM; in [2] it was 25.2 µM; in test [3], 4.35 µM; in test [4] it was greater than 30.1 µM; in [5] it was 1.79 µM; in test [6], 1.71 µM. In addition, the TGI is 3.85 µM in test [7], 16.3 µM in [8], 4.17 µM in test [9] and greater than 30.4 µM in test [10].
